The values below come from article PMC7217877, “N-AS-triggered SPMs are direct regulators of microglia in a model of Alzheimer’s disease” (Nature Communications, 2020).

One assay concerns the target T1, COX2 N181A (Homo sapiens, UniProt P35354, N181A).
T1 construct: His (N); made in house
T1 sequence (P35354 18-604 N181A): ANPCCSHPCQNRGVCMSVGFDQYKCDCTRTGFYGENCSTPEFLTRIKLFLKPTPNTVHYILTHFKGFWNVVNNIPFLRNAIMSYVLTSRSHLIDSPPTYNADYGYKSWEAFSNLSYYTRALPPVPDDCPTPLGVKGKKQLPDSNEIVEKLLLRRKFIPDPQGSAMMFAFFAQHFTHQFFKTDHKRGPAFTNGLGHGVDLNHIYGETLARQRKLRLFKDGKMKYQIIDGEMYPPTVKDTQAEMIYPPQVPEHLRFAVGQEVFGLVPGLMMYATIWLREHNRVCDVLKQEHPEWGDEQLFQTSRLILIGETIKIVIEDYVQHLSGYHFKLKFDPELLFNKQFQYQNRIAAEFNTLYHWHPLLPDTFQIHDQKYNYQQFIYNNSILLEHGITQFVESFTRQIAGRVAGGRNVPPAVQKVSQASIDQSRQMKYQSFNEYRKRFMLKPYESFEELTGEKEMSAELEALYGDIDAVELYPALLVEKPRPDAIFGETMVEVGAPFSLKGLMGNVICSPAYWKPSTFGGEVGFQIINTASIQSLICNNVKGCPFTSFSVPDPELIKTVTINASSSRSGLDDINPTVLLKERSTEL
The experiment in a line: filter binding assay of [14C] N-AS to COX2. The conditions noted are these: 0.2 uM, replicates.

The next assay deals with tumors. Set-up: method as in PMID 27043542, PMID 24566153. Particulars: cited from earlier work.
A further assay relates to microglia. Put plainly: SphK activity in primary cells. The format is cell-based, C57BL/6 mice. Particulars: Ab 10mM, replicates. Here is the method:
We confirmed S1P formation through SphK1 enzymatic activity measurements as previously described[11] using a UPLC (Ultra performance liquid chromatography) system (Waters). […] After pre-incubation, 1 mM ATP (Amresco, 0220) was added the mixture, and it was incubated at 37 °C for 1 h. The […] reactions were stopped by adding 53 μl of ethanol, and centrifuged at 15,493×g for 5 min. Thirty microliter of the supernatant was then transferred to a sampling glass vial and 5 μl was applied onto a UPLC system for analysis. S1P formation was followed as phosphorylation of (7-nitro-2-1,3-benzoxadiazol-4-yl)-d-erythro (NBD)-sphingosine (Avanti Polar Lipids) to NBD-S1P. Quantification was achieved by comparison with NBD-S1P (Avanti Polar Lipids) standards.
To confirm the generation and roles of N-AS in neurons, cells from E18 C57BL/6 mice were prepared as previously described. Cortices were dissected and then dissociated followed by incubation in papain (Worthington) at 37 °C for 15 min. […] Aβ 1–42 (10 μM, 24 h, Invitrogen, 03112) was exposed to neurons and the cells were analyzed for the generation and roles of N-AS. […] The human microglia treated with Aβ 1–42 and/or zileuton was incubated with N-AS (2.5 μM, 2 h, Sigma-Aldrich, 01912), and were analyzed for the generation and roles of N-AS.

“And” between values parts separate entries of the source, which are not always exact repeats. Equal values may be shown once.

With `CCCCCCCCCCCCC/C=C/[C@@H](O)[C@H](CO)NC(C)=O` [N-AS, N-((2S,3R,E)-1,3-Dihydroxyoctadec-4-en-2-yl)acetamide], the “binding velocity (Vbinding)” value at COX2 N181A is 0.489 nM/min and 0.461 nM/min and 0.240 nM/min. In the assay with tumors, the apoptosis of tumors entry is “induce apoptosis of tumors”.
For the molecule “Ab: Aβ 1–42 (Invitrogen, 03112) used to induce an AD environment in cells”, the “SphK activity (Fig 3d)” value in the assay on microglia was 3.655 and 3.493 and 3.944 and 3.366 and 2.386 and 3.719.
